{"source": "patent US9682060B2", "about": "“Small molecules that induce intrinsic pathway apoptosis” (The Board of Trustees of the University of Illinois, priority 2015, dated 2017)", "molecules": {"B1": {"name": "Bid: known pro-apoptotic protein; full-length recombinant Bid from R&D Systems (protein, UniProt P55957 1-195, looked up)", "chain": "MDCEVNNGSSLRDECITNLLVFGFLQSCSDNSFRRELDALGHELPVLAPQWEGYDELQTDGNRSSHSRLGRIEADSESQEDIIRNIARHLAQVGDSMDRSIPPGLVNGLALQLRNTSRSEEDRNRDLATALEQLLQAYPRDMEKEKTMLVLALLLAKKVASHTPSLLRDVFHTTVNFINQNLRTYVRSLARNGMD", "modifications": "full-length", "notes": "known pro-apoptotic protein; full-length recombinant Bid from R&D Systems"}}, "key": {"Granzyme B": {"biological_target": "Granzyme B (Homo sapiens, UniProt P10144)", "sequence (P10144 21-247, species assumed)": "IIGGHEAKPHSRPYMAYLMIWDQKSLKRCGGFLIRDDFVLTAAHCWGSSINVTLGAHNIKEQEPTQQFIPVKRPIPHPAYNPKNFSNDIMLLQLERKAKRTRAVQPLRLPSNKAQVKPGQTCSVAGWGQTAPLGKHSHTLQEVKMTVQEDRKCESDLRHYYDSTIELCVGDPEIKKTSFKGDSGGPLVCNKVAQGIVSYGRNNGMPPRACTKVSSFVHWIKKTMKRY", "conditions": "cited from earlier work"}, "U-937 cells": {"tested_on": "U-937 cells", "experiment": "Mitochondrial permeability transition pore (MPTP) calcein-cobalt assay", "type": "cell-based, Human", "conditions": "calcein-cobalt quenching", "method": "Mitochondrial Permeability Transition Pore (MPTP) Calcein-Cobalt Assay.\nU-937 cells (1×10^6 cells/mL in HBSS) were loaded with calcein-AM (20 nM final concentration) for 45 minutes at 37° C. The cells were washed with HBSS and resuspended in RPMI and plated into a 24-well plate (1×10^6 cells in 1 mL). The cells were treated with Raptinal (10 μM) for 15, 30, 45, 60 and 90 minutes. Cobalt(II) chloride was added (10 μL of 80 mM stock in HBSS) to the cells 10 minutes prior to the end of the time points. The cells were pelleted and resuspended in HBSS (0.5 mL) and calcein fluorescence was measured by flow cytometry. As a positive control for MPTP, ionomycin and calcium were added to calcein-labeled cells in HBSS 10 minutes prior to analysis by flow cytometry."}, "Calpain/Cathepsin": {"biological_target": "Calpain/Cathepsin", "conditions": "cited from earlier work"}, "[1]": {"tested_on": "isolated mitochondria (U-937 cells)", "experiment": "In vitro cytochrome c release from isolated mitochondria", "type": "biochemical, Human", "conditions": "respiring and non-respiring conditions, 30 min, Western blot", "method": "In Vitro Cytochrome c Release from Isolated Mitochondria.\nU-937 cells (120×10^6) were washed twice in PBS and resuspended in 800 μL ice-cold lysis buffer (50 mM HEPES, 5 mM DTT, 5 mM PMSF, 25 mM MgCl2, protease cocktail inhibitor, pH 7.5) and the cells were passed through a 26 gauge needle 26 times using a 1 mL syringe until >95% cells were lysed as determined by trypan blue. Isolation buffer (0.25 M sucrose in lysis buffer pH 7.5) was added to the lysed cells (2.4 mL) and mixed by inversion. Debris was removed by centrifugation (500×g. 10 min at 4° C.) and the mitochondria in the supernatant were pelleted by centrifugation (10000×g, 5 min at 4° C.). The mitochondrial pellet was resuspended in washing buffer (2 mL of 50 mM HEPES, 250 mM KCl, 25 mM EDTA, pH 7.5) and incubated on ice for 2 min and centrifuged (12500×g, 5 min). The mitochondrial pellet was resuspended in either non-respiration (300 μL of 50 mM HEPES, 5 mM DTT, 5 mM PMSF, 25 mM MgCl2, protease inhibitor, 250 mM KCl, 25 mM EDTA, pH 7.5) or respiration buffer (300 μL of 50 mM HEPES, […], 5 mM ATP, 0.4 mM ADP, 25 mM sodium succinate, 10 mM potassium phosphate dibasic, pH 7.5). […]"}}, "note": "Entries after “also recorded” stand apart in the source; their conditions may differ. Non-standard residues stand in square brackets, D forms with d. Residues, ends and D or L forms follow the SMILES beside them. *: point of attachment. Nle = CCCC[C@H](N)C(=O)O; Cbz = O=C(OCc1ccccc1)*; CH2Cl = ClC*"}
{"molecule": "CC(NC(=O)OCc1ccccc1)C(=O)NC(C)C(=O)NC(CC(=O)O)C(=O)CCl", "note": "(stereo not drawn) [Granzyme B Inhibitor I] (Cbz-Ala-Ala-Asp-CH2Cl; configuration not given here)", "values": [{"measurement": "Ki", "setting": "Granzyme B", "value": 300, "unit": "nM"}]}
{"molecule": "C[C@H](CCC(=O)O)C[C@H](C)C[C@H](C)C(=O)/C=C(\\O)[C@H](C)C[C@H](C)C/C=C/[C@@H](C)[C@@H](O)[C@@H](C)[C@@H](O)C[C@@H]1CC[C@@](C)([C@H]2CC[C@@](C)([C@@H](C)O)O2)O1", "note": "[lonomycin, ionomycin, reference compound]", "values": [{"measurement": "mitochondrial permeability transition pore (MPTP) formation", "setting": "U-937 cells", "value": "able to induce MPTP"}]}
{"molecule": "CCCC[C@@H](C=O)NC(=O)[C@H](CC(C)C)NC(=O)[C@H](CC(C)C)NC(C)=O", "note": "[Calpain/Cathepsin Inhibitor I] (Ac-Leu-Leu-[Nle]-aldehyde)", "values": [{"measurement": "Ki", "setting": "Calpain/Cathepsin", "value": "120 to 230", "unit": "nM"}]}
{"molecule": "B1", "values": [{"measurement": "cytochrome c release from isolated mitochondria", "setting": "[1]", "value": "able to induce cytochrome c release; also recorded: capable of releasing cytochrome c under both conditions"}]}
